Source: patent US5486505A, “Polypeptide compounds having growth hormone releasing activity” (Polygen Holding Corporation, priority 1992, dated 1996)

Test system: growth hormone (GH) release
Assay: In vivo GH release in pentobarbital anesthetized rats (serum GH by RIA)
Parameters: species or system immature female Sprague-Dawley rats
Settings: Table 4, control GH 181 ± 69
Method: Immature female Sprague-Dawley rats were obtained from the Charles River Laboratories (Wilmington, Mass.). After arrival they were housed at 25° C. with a 14:10 hour light:dark cycle. Water and Purina rat chow were available ad libitum. Pups were kept with their mothers until 21 days of age.
Twenty-six day old rats, six rats per treatment group, were anesthetized interperitoneally with 50 mg/Kg of pentobarbital 20 minutes prior to i. v. treatment with peptide. Normal saline with 0.1% gelatin was the vehicle for intravenous (i. v.) injections of the peptides. The anesthetized rats, weighing 55-65 grams, were injected i. v. with the quantity of growth hormone releasing compounds indicated in Tables 3 and 4. Injection was made as a 0.2 mL solution into the jugular vein.
All animals were sacrificed by guillotine 10 minutes after the final test injection (see Tables 3 and 4). Trunk blood for the determination of blood GH levels was collected following decapitation. After allowing the blood to clot, it was centrifuged and the serum was separated from the clot. […]
The mixed reagents are then typically incubated at room temperature (about 25° C.) for about 24 hours prior to addition of a second antibody (e.g., goat or rabbit anti-monkey gamma globulin serum) which binds to and causes precipitation of the complexed growth hormone antiserum. Precipitated contents of the RIA tubes are then analyzed for the number of counts in a specified period of time in a gamma scintillation counter. […] GH levels of unknowns are then determined by reference to the standard curve.
Serum GH was measured by RIA with reagents provided by the National Hormone and Pituitary Program.
Serum levels in Tables 3 and 4 are recorded in ng/mL in terms of the rat GH standard of 0.61 International Units/mg (IU/mg). Data is recorded as the mean +/- standard error of the mean (SEM). […]

With “His--DCys(SMe)--Ala--Trp--DPhe--Lys--NH2” the “GH Released” value (total dose 1.0 μg i.v.) was 193 ± 28 ng/mL, the “GH Released” value (total dose 3.0 μg i.v.) was 180 ± 34 ng/mL and the “GH Released” value (total dose .3 μg i.v.) was 178 ± 28 ng/mL.
